Results: patent US9101631B2, “Combination therapy based on SRC and aurora kinase inhibition for the treatment of cancer” (Georgetown University, priority 2008, dated 2015)

System: HCT116 colorectal cancer cells
Test: In vitro viability-based synergy assay (CellTiter Blue), dasatinib and C1368 alone and in combination
Description: HCT116 cells were plated at 3000 cells/well concentration into 96 well plates. […] Cells were incubated for an additional 72 hours and cellular viability measurements were performed using CellTiter Blue assay (Promega). IC50 values were calculated using XLFit and CI values were calculated using Calcusyn (Biosoft).

IC50 (Homo sapiens, HCT-116, 72 h, read-out: IC50 value, agent alone)	IC50 value, agent alone (HCT116 cells, 72 hours treatment, single agent)	Compound
600 nM		Cc1nc(Nc2ncc(C(=O)Nc3c(C)cccc3Cl)s2)cc(N2CCN(CCO)CC2)n1 [dasatinib]
	undeterminable	O=C(Nc1cccc(Nc2nccc(Nc3cccc(C(F)(F)F)c3)n2)c1)C1CC1 [C1368, Cyclopropanecarboxylic acid {3-[4-(3-trifluoromethyl-phenylamino)-pyrimidin-2-ylamino]-phenyl}-amide]
